Patent publication US4160839A, “Carbamyltriazole insecticides” (priority 1976, dated 1979)

Columns and labels:
[1] = system: Mexican bean beetle (MBB) larvae; experiment: Spray test, Mexican bean beetle (MBB) larvae on bean leaves; type: in vivo; details: approx. 48 h after spraying
Description: (§1) Three 5 oz paper cups containing Henderson dwarf lima bean plants and one 5 oz paper cup containing Orange Gem nasturtiums, all growing in vermiculite, are placed on a turntable and sprayed to thorough wetness with 25 ml of a solution of the candidate chemical at the appropriate concentration. Nasturtiums were already infested with 50-100 bean aphids (BA). A bean plant in one paper cup was already infested with 50-100 two-spotted mites (TSM). Leaves from the two remaining bean plants are removed following spraying and placed in disposable petri dishes with 5 southern armyworm (SA) larvae in one petri dish, and 5 Mexican bean beetle (MBB) larvae in the other petri dish. The rating is done approximately 48 hours after spraying as follows:
(§2) So as to obtain more meaningful results, all tests are performed at the same time of day, whenever possible, usually in the forenoon. Temperature,illumination and humidity are the same in all tests. Atmospheric pressure is not controlled.
(§3) Results obtained with the novel insecticides of this invention at various concentrations of active chemical are tabulated below. The ratings given are for averages of three or more replicates. The oral lethal dose for 50 percent kill of laboratory rats is also recorded in the table. In conducting the toxicity tests on rats, 0.01 g of active chemical per ml in corn oil is employed as an additive to the diet of the animals.

[2] = system: southern armyworm (SA) larvae; experiment: Spray test, southern armyworm (SA) larvae on bean leaves; type: in vivo; details: approx. 48 h after spraying
Description: as §1, §2, §3

bean aphids (BA) = experiment: Spray test, bean aphids (BA) on nasturtiums; type: in vivo; details: approx. 48 h after spraying
Description: as §1, §2, §3

two-spotted mites (TSM) = experiment: Spray test, two-spotted mites (TSM) on bean plants; type: in vivo; details: approx. 48 h after spraying
Description: as §1, §2, §3

[3] = system: Southern Corn Rootworm (SCR); experiment: Southern Corn Rootworm (SCR) soil treatment test, root feeding damage on corn; type: in vivo; parameters: scale not given here; details: nine days after treatment
Description: Three 5 oz paper cups planted each with one kernel of DeKalb XL-361 corn are treated two days after planting with 10 ml of a 125 ppm solution of the candidate compound. Compounds with high efficacy are treated at lower concentrations. The experiment is a 4×5 factorial in a randomized complete block design with three replications. The tests are evaluated nine days after treatment. The roots are inspected under a dissecting microscope and rated as follows:
as §2, §3

[4] = Oral toxicity test on laboratory rats; details: rat, in vivo, in corn oil as additive to the diet, read-out: LD50 (oral lethal dose for 50 percent kill of laboratory rats)
Description: as §3

C=CCSc1nc(C2CC2)nn1C(=O)N(C)C [R=2-propenyl (allyl), R'=cyclopropyl]
MBB rating (larvae dead) ([1]; 15 ppm): 0 (no larvae dead) | MBB rating (larvae dead) ([1]; 31 ppm): 0 (no larvae dead) | MBB rating (larvae dead) ([1]; 62 ppm): 0 (no larvae dead) | MBB rating (larvae dead) ([1]; 125 ppm): 2 (26-50% larvae dead) | MBB rating (larvae dead) ([1]; 250 ppm): 5 (100% larvae dead) | MBB rating (larvae dead) ([1]; 500 ppm): 5 (100% larvae dead) | SA rating (larvae dead) ([2]; 15 ppm): 0 (no larvae dead) | SA rating (larvae dead) ([2]; 31 ppm): 0 (no larvae dead) | SA rating (larvae dead) ([2]; 62 ppm): 0 (no larvae dead) | SA rating (larvae dead) ([2]; 125 ppm): 0 (no larvae dead) | SA rating (larvae dead) ([2]; 250 ppm): 0 (no larvae dead) | SA rating (larvae dead) ([2]; 500 ppm): 5 (100% larvae dead) | BA rating (dead) (bean aphids (BA); 2 ppm): 4 (76-99% dead) | BA rating (dead) (bean aphids (BA); 4 ppm): 5 (100% dead) | BA rating (dead) (bean aphids (BA); 8 ppm): 5 (100% dead) | BA rating (dead) (bean aphids (BA); 15 ppm): 5 (100% dead) | BA rating (dead) (bean aphids (BA); 31 ppm): 5 (100% dead) | BA rating (dead) (bean aphids (BA); 62 ppm): 5 (100% dead) | BA rating (dead) (bean aphids (BA); 125 ppm): 5 (100% dead) | BA rating (dead) (bean aphids (BA); 250 ppm): 5 (100% dead) | BA rating (dead) (bean aphids (BA); 500 ppm): 5 (100% dead) | TSM rating (dead adults) (two-spotted mites (TSM); 15 ppm): 0 (no dead adults) | TSM rating (dead adults) (two-spotted mites (TSM); 31 ppm): 0 (no dead adults) | TSM rating (dead adults) (two-spotted mites (TSM); 62 ppm): 3 (51-75% dead adults) | TSM rating (dead adults) (two-spotted mites (TSM); 125 ppm): 5 (100% dead adults) | TSM rating (dead adults) (two-spotted mites (TSM); 250 ppm): 5 (100% dead adults) | TSM rating (dead adults) (two-spotted mites (TSM); 500 ppm): 5 (100% dead adults) | SCR Rating (root feeding damage) ([3]; 3 ppm): 3.0 | SCR Rating (root feeding damage) ([3]; 6 ppm): 2.5 | SCR Rating (root feeding damage) ([3]; 12 ppm): 2.5 | SCR Rating (root feeding damage) ([3]; 25 ppm): 3.0 | SCR Rating (root feeding damage) ([3]; 50 ppm): 3.5 | LD50 [4]: 5 to 10 mg/kg

C=CCSc1nc(C(C)C)nn1C(=O)N(C)C [R=2-propenyl (allyl), R'=isopropyl]
MBB rating (larvae dead) ([1]; 15 ppm): 0 (no larvae dead) | MBB rating (larvae dead) ([1]; 31 ppm): 0 (no larvae dead) | MBB rating (larvae dead) ([1]; 62 ppm): 2 (26-50% larvae dead) | MBB rating (larvae dead) ([1]; 125 ppm): 5 (100% larvae dead) | MBB rating (larvae dead) ([1]; 250 ppm): 5 (100% larvae dead) | MBB rating (larvae dead) ([1]; 500 ppm): 5 (100% larvae dead) | SA rating (larvae dead) ([2]; 15 ppm): 0 (no larvae dead) | SA rating (larvae dead) ([2]; 31 ppm): 0 (no larvae dead) | SA rating (larvae dead) ([2]; 62 ppm): 0 (no larvae dead) | SA rating (larvae dead) ([2]; 125 ppm): 0 (no larvae dead) | SA rating (larvae dead) ([2]; 250 ppm): 0 (no larvae dead) | SA rating (larvae dead) ([2]; 500 ppm): 5 (100% larvae dead) | BA rating (dead) (bean aphids (BA); 2 ppm): 0 (none dead) | BA rating (dead) (bean aphids (BA); 4 ppm): 2 (26-50% dead) | BA rating (dead) (bean aphids (BA); 8 ppm): 4 (76-99% dead) | BA rating (dead) (bean aphids (BA); 15 ppm): 5 (100% dead) | BA rating (dead) (bean aphids (BA); 31 ppm): 5 (100% dead) | BA rating (dead) (bean aphids (BA); 62 ppm): 5 (100% dead) | BA rating (dead) (bean aphids (BA); 125 ppm): 5 (100% dead) | BA rating (dead) (bean aphids (BA); 250 ppm): 5 (100% dead) | BA rating (dead) (bean aphids (BA); 500 ppm): 5 (100% dead) | TSM rating (dead adults) (two-spotted mites (TSM); 500 ppm): 0 (no dead adults) | SCR Rating (root feeding damage) ([3]; 3 ppm): 3.5 | LD50 [4]: 10 to 50 mg/kg

C=CCSc1nc(C(C)(C)C)nn1C(=O)N(C)C [R=2-propenyl (allyl), R'=tert.butyl, 1-Dimethylcarbamyl-3-tert.butyl-5-allylthio-1H-1,2,4-triazole]
MBB rating (larvae dead) ([1]; 15 ppm): 0 (no larvae dead) | MBB rating (larvae dead) ([1]; 31 ppm): 0 (no larvae dead) | MBB rating (larvae dead) ([1]; 62 ppm): 1 (1 -25% larvae dead) | MBB rating (larvae dead) ([1]; 125 ppm): 5 (100% larvae dead) | MBB rating (larvae dead) ([1]; 250 ppm): 5 (100% larvae dead) | MBB rating (larvae dead) ([1]; 500 ppm): 5 (100% larvae dead) | SA rating (larvae dead) ([2]; 500 ppm): 1 (1-25% larvae dead) | BA rating (dead) (bean aphids (BA); 2 ppm): 2 (26-50% dead) | BA rating (dead) (bean aphids (BA); 4 ppm): 3 (51-75% dead) | BA rating (dead) (bean aphids (BA); 8 ppm): 4 (76-99% dead) | BA rating (dead) (bean aphids (BA); 15 ppm): 5 (100% dead) | BA rating (dead) (bean aphids (BA); 31 ppm): 5 (100% dead) | BA rating (dead) (bean aphids (BA); 62 ppm): 5 (100% dead) | BA rating (dead) (bean aphids (BA); 125 ppm): 5 (100% dead) | BA rating (dead) (bean aphids (BA); 250 ppm): 5 (100% dead) | BA rating (dead) (bean aphids (BA); 500 ppm): 5 (100% dead) | TSM rating (dead adults) (two-spotted mites (TSM); 500 ppm): 0 (no dead adults) | SCR Rating (root feeding damage) ([3]; 25 ppm): 2.5 | LD50 [4]: 17 mg/kg

C#CCSc1nc(C2CC2)nn1C(=O)N(C)C [R=2-propynyl (propargyl), R'=cyclopropyl]
MBB rating (larvae dead) ([1]; 15 ppm): 1 (1 -25% larvae dead) | MBB rating (larvae dead) ([1]; 31 ppm): 1 (1 -25% larvae dead) | MBB rating (larvae dead) ([1]; 62 ppm): 3 (51-75% larvae dead) | MBB rating (larvae dead) ([1]; 125 ppm): 5 (100% larvae dead) | MBB rating (larvae dead) ([1]; 250 ppm): 5 (100% larvae dead) | MBB rating (larvae dead) ([1]; 500 ppm): 5 (100% larvae dead) | SA rating (larvae dead) ([2]; 15 ppm): 0 (no larvae dead) | SA rating (larvae dead) ([2]; 31 ppm): 0 (no larvae dead) | SA rating (larvae dead) ([2]; 62 ppm): 0 (no larvae dead) | SA rating (larvae dead) ([2]; 125 ppm): 2 (26-50% larvae dead) | SA rating (larvae dead) ([2]; 250 ppm): 4 (76-99% larvae dead) | SA rating (larvae dead) ([2]; 500 ppm): 5 (100% larvae dead) | BA rating (dead) (bean aphids (BA); 2 ppm): 1 (1-25% dead) | BA rating (dead) (bean aphids (BA); 4 ppm): 3 (51-75% dead) | BA rating (dead) (bean aphids (BA); 8 ppm): 5 (100% dead) | BA rating (dead) (bean aphids (BA); 15 ppm): 5 (100% dead) | BA rating (dead) (bean aphids (BA); 31 ppm): 5 (100% dead) | BA rating (dead) (bean aphids (BA); 62 ppm): 5 (100% dead) | BA rating (dead) (bean aphids (BA); 125 ppm): 5 (100% dead) | BA rating (dead) (bean aphids (BA); 250 ppm): 5 (100% dead) | BA rating (dead) (bean aphids (BA); 500 ppm): 5 (100% dead) | TSM rating (dead adults) (two-spotted mites (TSM); 15 ppm): 0 (no dead adults) | TSM rating (dead adults) (two-spotted mites (TSM); 31 ppm): 0 (no dead adults) | TSM rating (dead adults) (two-spotted mites (TSM); 62 ppm): 2 (26-50% dead adults) | TSM rating (dead adults) (two-spotted mites (TSM); 125 ppm): 4 (76-99% dead adults) | TSM rating (dead adults) (two-spotted mites (TSM); 250 ppm): 4 (76-99% dead adults) | TSM rating (dead adults) (two-spotted mites (TSM); 500 ppm): 5 (100% dead adults) | SCR Rating (root feeding damage) ([3]; 25 ppm): 1.3 | SCR Rating (root feeding damage) ([3]; 50 ppm): 4.3 | SCR Rating (root feeding damage) ([3]; 100 ppm): 4.3 | LD50 [4]: 10 mg/kg
